Data: patent publication US10945932B2, “Prebiotic oral care compositions containing carboxylic acids” (COLGATE-PALMOLIVE COMPANY, priority 2013, dated 2021)

Key:
Assay type in all cases: cell-based
[1] = test system: beneficial oral bacteria and pathogenic oral bacteria; test: Metabolic activity, prebiotic effect over the whole panel; conditions: 48 hrs; threshold value of 2
Protocol: (§1) The extent of metabolic activity of the tested bacteria in the presence of the above-mentioned acids after 24 hours and 48 hours was investigated through a high throughput phenotype microarray system (PM) for microbial cells (Biolog Inc.). Each PM can contain up to 95 different biochemical compounds (e.g. organic acids) that may act as substrates for bacteria as well as one negative control, not containing the substrates. Microarray plates were used in which the different wells of each plate were pre-loaded (by the manufacturer, Biolog Inc.) with different organic acids to be tested. Each bacterial species was tested using a separate microarray plate. Thus, a single bacterial species was tested with a variety of organic acids on each particular plate. The microarrays are based on redox technology, using cell respiration as a universal reporter. […] The observation of this color change indicates which of the substrates improve the metabolic activity and health of the cells.
(§2) Each bacterial species was collected from blood agar plates (incubated for 48 hours anaerobically at 37° C.) and transferred to an IF-0 Base inoculation fluid (Biolog Inc.), which is a nutritionally poor medium. […] A 1:5 dilution of this suspension was prepared by mixing 3 mL of the 42% transmittance cell suspension with 15 mL of an inoculation fluid (which inoculation fluid was formed by mixing 11.6 mL sterile water, 62.5 mL IF-0 base inoculation fluid and 0.9 mL of the tetrazolium dye “Biolog Redox Dye mix D”), resulting in a final cell density which was equal to 85% transmittance using a BioRad SmartSpec 3000 Photometer. For each of the acids tested, the microarray plate (obtained from the supplier (Biolog Inc.) with acid already present in the relevant wells in powder form) was directly inoculated with 100 μL/well of this 85% transmittance cell suspension.
(§3) All plates were incubated in an anaerobic atmosphere at 37° C. Color changes were measured spectrophotometrically at 492 nm (Thermo Scientific Multiskan Ascent) at 24 hrs and 48 hrs using the same plate at both time points.
(§4) The controls were also carried out three times, as above.

Streptococcus mitis = test: Metabolic activity, Biolog phenotype microarray; conditions: S mitis
Protocol: as §1, §2, §3, §4

Streptococcus sobrinus = test: Metabolic activity, Biolog phenotype microarray; conditions: S sobrinus
Protocol: as §1, §2, §3, §4

Actinomyces naeslundii = test: Metabolic activity, Biolog phenotype microarray; conditions: A naeslundii
Protocol: as §1, §2, §3, §4

Porphyromonas gingivalis = test: Metabolic activity, Biolog phenotype microarray; conditions: P gingivalis
Protocol: as §1, §2, §3, §4

[2] = test system: Aggregatibacter actinomycetemcomitans; test: Metabolic activity, Biolog phenotype microarray; conditions: A actinomycetemcomitans
Protocol: as §1, §2, §3, §4

Streptococcus mutans = test: Metabolic activity, Biolog phenotype microarray; conditions: S mutans
Protocol: as §1, §2, §3, §4

Streptococcus sanguinis = test: Metabolic activity, Biolog phenotype microarray; conditions: S sanguinis
Protocol: as §1, §2, §3, §4

Streptococcus gordonii = test: Metabolic activity, Biolog phenotype microarray; conditions: S gordonii
Protocol: as §1, §2, §3, §4

Capnocytophaga sputigena = test: Metabolic activity, Biolog phenotype microarray; conditions: C sputigena
Protocol: as §1, §2, §3, §4

Streptococcus salivarius = test: Metabolic activity, Biolog phenotype microarray; conditions: S salivarius
Protocol: as §1, §2, §3, §4

Veillonella parvula = test: Metabolic activity, Biolog phenotype microarray; conditions: V parvula
Protocol: as §1, §2, §3, §4

Prevotella intermedia = test: Metabolic activity, Biolog phenotype microarray; conditions: P intermedia
Protocol: as §1, §2, §3, §4

Fusobacterium nucleatum = test: Metabolic activity, Biolog phenotype microarray; conditions: F nucleatum
Protocol: as §1, §2, §3, §4

Actinomyces viscosus = test: Metabolic activity, Biolog phenotype microarray; conditions: A viscosus
Protocol: as §1, §2, §3, §4

Tannerella forsythia = test: Metabolic activity, Biolog phenotype microarray; conditions: T forsythia
Protocol: as §1, §2, §3, §4

O=C(O)[C@H](O)[C@@H](O)[C@H](O)[C@H](O)CO[C@H]1O[C@H](CO)[C@H](O)[C@H](O)[C@H]1O [Melibionic acid, melibionic acid]
prebiotic effect (metabolic activity) [1]: exhibited prebiotic effects | metabolic activity, OD at 492 nm divided by OD of control (control = 1) (Streptococcus mitis; 24 hrs): 1.0443 | metabolic activity, OD at 492 nm divided by OD of control (control = 1) (Streptococcus mitis; 48 hrs): 0.9983 | metabolic activity, OD at 492 nm divided by OD of control (control = 1) (Streptococcus sobrinus; 24 hrs): 1.1366 | metabolic activity, OD at 492 nm divided by OD of control (control = 1) (Streptococcus sobrinus; 48 hrs): 1.1222 | metabolic activity, OD at 492 nm divided by OD of control (control = 1) (Actinomyces naeslundii; 24 hrs): 1.2539 | metabolic activity, OD at 492 nm divided by OD of control (control = 1) (Actinomyces naeslundii; 48 hrs): 1.3926 | metabolic activity, OD at 492 nm divided by OD of control (control = 1) (Porphyromonas gingivalis; 24 hrs): 0.8689 | metabolic activity, OD at 492 nm divided by OD of control (control = 1) (Porphyromonas gingivalis; 48 hrs): 0.9301 | metabolic activity, OD at 492 nm divided by OD of control (control = 1) ([2]; 24 hrs): 0.9361 | metabolic activity, OD at 492 nm divided by OD of control (control = 1) ([2]; 48 hrs): 0.8912 | metabolic activity, OD at 492 nm divided by OD of control (control = 1) (Streptococcus mutans; 24 hrs): 1.1010 | metabolic activity, OD at 492 nm divided by OD of control (control = 1) (Streptococcus mutans; 48 hrs): 1.0362 | metabolic activity, OD at 492 nm divided by OD of control (control = 1) (Streptococcus sanguinis; 24 hrs): 1.0430 | metabolic activity, OD at 492 nm divided by OD of control (control = 1) (Streptococcus sanguinis; 48 hrs): 1.0832 | metabolic activity, OD at 492 nm divided by OD of control (control = 1) (Streptococcus gordonii; 24 hrs): 1.0326 | metabolic activity, OD at 492 nm divided by OD of control (control = 1) (Streptococcus gordonii; 48 hrs): 0.9389 | metabolic activity, OD at 492 nm divided by OD of control (control = 1) (Capnocytophaga sputigena; 24 hrs): 0.6213 | metabolic activity, OD at 492 nm divided by OD of control (control = 1) (Capnocytophaga sputigena; 48 hrs): 0.9143 | metabolic activity, OD at 492 nm divided by OD of control (control = 1) (Streptococcus salivarius; 24 hrs): 0.9984 | metabolic activity, OD at 492 nm divided by OD of control (control = 1) (Streptococcus salivarius; 48 hrs): 0.9237 | metabolic activity, OD at 492 nm divided by OD of control (control = 1) (Veillonella parvula; 24 hrs): 0.8685 | metabolic activity, OD at 492 nm divided by OD of control (control = 1) (Veillonella parvula; 48 hrs): 0.6981 | metabolic activity, OD at 492 nm divided by OD of control (control = 1) (Prevotella intermedia; 24 hrs): 1.0625 | metabolic activity, OD at 492 nm divided by OD of control (control = 1) (Prevotella intermedia; 48 hrs): 1.0988 | metabolic activity, OD at 492 nm divided by OD of control (control = 1) (Fusobacterium nucleatum; 24 hrs): 0.9131 | metabolic activity, OD at 492 nm divided by OD of control (control = 1) (Fusobacterium nucleatum; 48 hrs): 0.8299 | metabolic activity, OD at 492 nm divided by OD of control (control = 1) (Actinomyces viscosus; 24 hrs): 1.6342 | metabolic activity, OD at 492 nm divided by OD of control (control = 1) (Actinomyces viscosus; 48 hrs): 2.0904 | metabolic activity, OD at 492 nm divided by OD of control (control = 1) (Tannerella forsythia; 24 hrs): 1.0848 | metabolic activity, OD at 492 nm divided by OD of control (control = 1) (Tannerella forsythia; 48 hrs): 1.1865
